Experimental data reported in DBAASP.
In brackets after ≈: the same amount, converted by molar mass.

How the values were obtained:
Assay in all cases: ≥ marks a high value that may be exact or a test limit, other limits are often not marked, values filed in µg/mL are converted to µM
[1] = tested on: Bacillus subtilis ATCC 6633
[2] = tested on: Candida albicans ATCC 10231
[3] = tested on: Candida parapsilosis ATCC 22019
Cryptococcus neoformans = tested on: Cryptococcus neoformans
[4] = tested on: Escherichia coli ATCC 9637
[5] = tested on: Klebsiella pneumoniae ATCC 27736
[6] = tested on: Pseudomonas aeruginosa ATCC BAA-427
Sporothrix schenckii = tested on: Sporothrix schenckii
[7] = tested on: Staphylococcus aureus ATCC 25923
[8] = tested on: Staphylococcus aureus ATCC 29213
[9] = tested on: Staphylococcus aureus ATCC 33592
[10] = tested on: Staphylococcus aureus ATCC 700698
[11] = tested on: Staphylococcus aureus ATCC 700699
[12] = tested on: Staphylococcus aureus ATCC BAA-44
[13] = tested on: Candida albicans CPCC 400416
[14] = tested on: Escherichia coli CPCC 100521
[15] = tested on: Staphylococcus aureus CPCC 100520
[16] = tested on: Escherichia coli ATCC 11775
[17] = tested on: Escherichia coli ATCC 25922
[18] = tested on: Escherichia coli ATCC 35218
[19] = tested on: Salmonella enterica subsp. enterica serovar Typhi Vi+
[20] = tested on: Salmonella enterica subsp. enterica serovar Typhimurium ATCC 14028
[21] = tested on: Escherichia coli DH5alpha
Escherichia coli = tested on: Escherichia coli
[22] = tested on: Pseudomonas aeruginosa ATCC 27853
[23] = tested on: Pseudomonas aeruginosa H188
[24] = tested on: Acinetobacter baumannii AB5075
[25] = tested on: Bacillus amyloliquefaciens ATCC 23842
[26] = tested on: Bacillus cereus ATCC 14579
[27] = tested on: Bacillus licheniformis ATCC 14580
[28] = tested on: Bacillus subtilis ATCC 6051
[29] = tested on: Enterococcus faecalis 1F-1
Enterococcus faecalis A4 = tested on: Enterococcus faecalis A4
[30] = tested on: Enterococcus faecium 5F-10
Enterococcus faecium = tested on: Enterococcus faecium
Escherichia coli NDM = tested on: Escherichia coli NDM
Escherichia coli W3110 = tested on: Escherichia coli W3110
[31] = tested on: Pseudomonas aeruginosa PA14
[32] = tested on: Staphylococcus aureus 215
Staphylococcus aureus MR = tested on: Staphylococcus aureus MR
Staphylococcus aureus = tested on: Staphylococcus aureus
Escherichia coli JW3441 = tested on: Escherichia coli JW3441
Escherichia coli JW5831 = tested on: Escherichia coli JW5831
Escherichia coli MG1655 = tested on: Escherichia coli MG1655

**Q.** `CC[C@H](C)[C@H](NC(=O)[C@H](C)NC(=O)[C@H](CCCCN)NC(=O)[C@@H]1CCCN1C(=O)[C@H](C)NC(=O)[C@H](Cc1cnc[nH]1)NC(=O)[C@@H](NC(=O)[C@H](C)NC(=O)CNC(=O)[C@H](CCCCN)NC(=O)[C@@H](NC(=O)[C@H](CC(C)C)NC(=O)[C@H](Cc1c[nH]c2ccccc12)NC(=O)CNC(=O)[C@H](Cc1ccccc1)NC(=O)[C@@H](N)Cc1ccccc1)[C@@H](C)CC)[C@@H](C)CC)C(=O)N[C@@H](Cc1cnc[nH]1)C(=O)NCC(=O)N[C@@H](CC(C)C)C(=O)N[C@H](C(=O)N[C@@H](Cc1cnc[nH]1)C(=O)N[C@@H](CCCN=C(N)N)C(=O)N[C@@H](CCCN=C(N)N)C(=O)N[C@@H](CCCN=C(N)N)C(=O)N[C@@H](Cc1cnc[nH]1)C(=O)O)[C@@H](C)CC` [FFGWLIKGAIHAPKAIHGLIHRRRH] was tested. Which MIC [1] did it give?
**A.** 3 µM (≈ 8.8 µg/mL)

**Q.** What about the MIC [2] of the same compound?
**A.** 13.6 µM (≈ 39.9 µg/mL)

**Q.** What about the MIC [3] of the same compound?
**A.** 6.8 µM (≈ 19.9 µg/mL)

**Q.** And the MIC (Cryptococcus neoformans)?
**A.** 13.6 µM (≈ 39.9 µg/mL)

**Q.** And the MIC [4]?
**A.** 3 µM (≈ 8.8 µg/mL)

**Q.** And the MIC [5]?
**A.** 6.8 µM (≈ 19.9 µg/mL)

**Q.** What about the MIC [6] of the same compound?
**A.** 6.8 µM (≈ 19.9 µg/mL)

**Q.** And the MIC (Sporothrix schenckii)?
**A.** 27.2 µM (≈ 79.8 µg/mL)

**Q.** And the MIC [7]?
**A.** 3 µM (≈ 8.8 µg/mL)

**Q.** And the MIC [8]?
**A.** 1.6 µM (≈ 4.69 µg/mL)

**Q.** And the MIC [9]?
**A.** 1.6 µM (≈ 4.69 µg/mL)

**Q.** And the MIC [10]?
**A.** 3 µM (≈ 8.8 µg/mL)

**Q.** What about the MIC [11] of the same compound?
**A.** 1.6 µM (≈ 4.69 µg/mL)

**Q.** What about the MIC [12] of the same compound?
**A.** 1.6 µM (≈ 4.69 µg/mL)

**Q.** How did the MIC [13] turn out when `CC[C@H](C)[C@H](N)C(=O)N[C@H](C(=O)NCC(=O)N1CCC[C@H]1C(=O)N[C@H](C(=O)N[C@@H](CC(C)C)C(=O)NCC(=O)N[C@@H](CC(C)C)C(=O)N[C@H](C(=O)NCC(=O)N[C@@H](CCCCN)C(=O)N[C@@H](C)C(=O)N[C@@H](CC(C)C)C(=O)NCC(=O)NCC(=O)N[C@@H](CC(C)C)C(=O)N[C@@H](CC(C)C)C(N)=O)C(C)C)C(C)C)[C@@H](C)CC` [IIGPVLGLVGKALGGLL] was run?
**A.** ≥ 161 µM

**Q.** What about the MIC [14] of the same compound?
**A.** ≥ 161 µM

**Q.** What about the MIC [15] of the same compound?
**A.** ≥ 161 µM

**Q.** With `CC[C@H](C)[C@H](NC(=O)[C@@H]1CCCN1C(=O)[C@H](CCCN=C(N)N)NC(=O)[C@@H]1CCCN1C(=O)[C@H](Cc1cnc[nH]1)NC(=O)[C@H](CO)NC(=O)[C@@H](NC(=O)[C@@H]1CCCN1C(=O)[C@H](CCCCN)NC(=O)[C@@H]1CCCN1C(=O)[C@H](CO)NC(=O)[C@H](Cc1ccc(O)cc1)NC(=O)[C@@H]1CCCN1C(=O)[C@H](CCCN=C(N)N)NC(=O)[C@@H]1CCCN1C(=O)[C@H](CCCCN)NC(=O)CN)[C@@H](C)O)C(=O)N[C@@H](CCCN=C(N)N)C(=O)N[C@H](C(=O)O)C(C)C` [GKPRPYSPKPTSHPRPIRV] as the compound, how does the MIC [16] read?
**A.** 3 µM (≈ 6.51 µg/mL)

**Q.** What about the MIC [17] of the same compound?
**A.** 3.5 µM (≈ 7.6 µg/mL)

**Q.** And the MIC [18]?
**A.** 2 µM (≈ 4.34 µg/mL)

**Q.** And the MIC [19]?
**A.** 10 µM (≈ 21.7 µg/mL)

**Q.** And the MIC [20]?
**A.** 10 µM (≈ 21.7 µg/mL)

**Q.** Which MIC [17] does the source give for `CC[C@H](C)[C@H](NC(=O)[C@H](C)NC(=O)[C@H](CCCCN)NC(=O)[C@H](CC(C)C)NC(=O)[C@H](C)NC(=O)[C@@H](NC(=O)[C@H](Cc1cnc[nH]1)NC(=O)[C@H](CC(C)C)NC(=O)[C@H](CCC(=O)O)NC(=O)[C@@H](NC(=O)[C@H](CCCCN)NC(=O)[C@H](CCCCN)NC(=O)[C@H](C)NC(=O)[C@H](CO)NC(=O)[C@H](CCCCN)NC(=O)[C@H](Cc1ccccc1)NC(=O)[C@@H](NC(=O)[C@H](CCCCN)NC(=O)[C@H](CC(C)C)NC(=O)[C@H](Cc1ccccc1)NC(=O)[C@H](CO)NC(=O)[C@H](CCCCN)NC(=O)[C@H](Cc1c[nH]c2ccccc12)NC(=O)[C@H](CCCCN)NC(C)=O)[C@@H](C)O)[C@@H](C)O)[C@@H](C)O)C(=O)N[C@@H](CO)C(=O)N[C@@H](CO)C(N)=O` [KWKSFLKTFKSAKKTELHTALKAISS] here?
**A.** 5.37 µM (≈ 16.2 µg/mL)

**Q.** And the MIC [21]?
**A.** 21.5 µM (≈ 64.9 µg/mL)

**Q.** And the MIC (Escherichia coli)?
**A.** 42 µM (≈ 127 µg/mL)

**Q.** And the MIC [22]?
**A.** 42 µM (≈ 127 µg/mL)

**Q.** What about the MIC [23] of the same compound?
**A.** 21.5 µM (≈ 64.9 µg/mL)

**Q.** What does the source list for `CC[C@H](C)[C@H](NC(=O)[C@H](C)NC(=O)[C@@H](NC(=O)[C@@H]1CCCN1C(=O)[C@H](CCCN=C(N)N)NC(=O)[C@H](CCCCN)NC(=O)[C@H](CO)NC(=O)[C@@H](NC(=O)[C@H](CC(C)C)NC(=O)[C@@H](NC(=O)[C@H](CCCN=C(N)N)NC(=O)[C@@H](NC(=O)[C@H](CC(C)C)NC(=O)[C@@H](N)CCCN=C(N)N)C(C)C)[C@@H](C)CC)C(C)C)C(C)C)C(=O)N[C@@H](CCCCN)C(=O)N1CCC[C@H]1C(=O)N[C@@H](Cc1ccc(O)cc1)C(=O)N[C@@H](Cc1ccccc1)C(=O)N[C@@H](CCCN=C(N)N)C(=O)N[C@@H](CC(C)C)C(=O)O` [RLVRILVSKRPVAIKPYFRL]?
**A.** MIC [24]: 2 µM (≈ 4.85 µg/mL); MIC [25]: 26.4 µM (≈ 64 µg/mL); MIC [26]: 26.4 µM (≈ 64 µg/mL); MIC [27]: 26.4 µM (≈ 64 µg/mL); MIC [28]: 26.4 µM (≈ 64 µg/mL); MIC [29]: 1.65 µM (≈ 4 µg/mL); MIC (Enterococcus faecalis A4): 1.65 µM (≈ 4 µg/mL); MIC [30]: 0.825 µM (≈ 2 µg/mL); MIC (Enterococcus faecium): 1.65 µM (≈ 4 µg/mL); MIC (Escherichia coli NDM): 8 µM (≈ 19.4 µg/mL); MIC (Escherichia coli W3110): 4 µM (≈ 9.7 µg/mL); MIC [31]: 8 µM (≈ 19.4 µg/mL); MIC [32]: 26.4 µM (≈ 64 µg/mL); MIC [8]: > 26.4 µM; MIC (Staphylococcus aureus MR): 26.4 µM (≈ 64 µg/mL); MIC (Staphylococcus aureus): 13.2 µM (≈ 32 µg/mL)

**Q.** With `CC[C@H](C)[C@H](NC(=O)[C@H](CCCCN)NC(=O)CNC(=O)[C@H](CC(C)C)NC(=O)[C@H](CC(C)C)NC(=O)[C@H](Cc1cnc[nH]1)NC(=O)[C@H](Cc1ccccc1)NC(=O)[C@@H](N)C(C)C)C(=O)N[C@H](C(=O)N[C@@H](Cc1cnc[nH]1)C(=O)N[C@@H](Cc1cnc[nH]1)C(=O)N[C@H](C(=O)NCC(=O)N[C@@H](CC(N)=O)C(=O)N[C@@H](Cc1ccccc1)C(=O)N[C@H](C(=O)N[C@@H](Cc1ccc(O)cc1)C(=O)NCC(=O)N[C@@H](Cc1ccccc1)C(=O)N[C@@H](CO)C(=O)N[C@@H](Cc1cnc[nH]1)C(=O)N[C@H](C(=O)N[C@@H](Cc1ccccc1)C(N)=O)C(C)C)C(C)C)C(C)C)[C@@H](C)CC` [VFHLLGKIIHHVGNFVYGFSHVF] as the compound, how does the MIC (Escherichia coli JW3441) read?
**A.** 4 µM (≈ 10.7 µg/mL)

**Q.** And the MIC (Escherichia coli JW5831)?
**A.** 4 µM (≈ 10.7 µg/mL)

**Q.** What about the MIC (Escherichia coli MG1655) of the same compound?
**A.** 4 µM (≈ 10.7 µg/mL)
